According to ChEMBL document CHEMBL4507281, “Data for DCP probe BI-4394” (2021):

Columns and labels:
Settings in all cases: Compound concentration 100.0 nM
[1] = tested on: Tyrosine-protein kinase ABL1 (Homo sapiens), P00519 [F317I]
[2] = target: RAC-beta serine/threonine-protein kinase (Homo sapiens) (UniProt P31751)
[3] = target: Calcium/calmodulin-dependent protein kinase type 1D (Homo sapiens) (UniProt Q8IU85)
[4] = target: Calcium/calmodulin-dependent protein kinase kinase 2 (Homo sapiens) (UniProt Q96RR4)
[5] = target: Cyclin-dependent kinase 7 (Homo sapiens) (UniProt P50613)
[6] = target: Cyclin-dependent kinase 8 (Homo sapiens) (UniProt P49336)
[7] = target: Dual specificity protein kinase CLK3 (Homo sapiens) (UniProt P49761)
[8] = target: Dual specificity tyrosine-phosphorylation-regulated kinase 1B (Homo sapiens) (UniProt Q9Y463)
[9] = target: Mitogen-activated protein kinase 6 (Homo sapiens) (UniProt Q16659)
[10] = target: Vascular endothelial growth factor receptor 3 (Homo sapiens) (UniProt P35916)
[11] = target: Rhodopsin kinase GRK7 (Homo sapiens) (UniProt Q8WTQ7)
[12] = tested on: Mast/stem cell growth factor receptor Kit (Homo sapiens), P10721 [D816V]
[13] = tested on: Mast/stem cell growth factor receptor Kit (Homo sapiens), P10721 [L576P]
[14] = tested on: Mast/stem cell growth factor receptor Kit (Homo sapiens), P10721 [V559D,T670I]
[15] = target: Myosin-IIIb (Homo sapiens) (UniProt Q8WXR4)
[16] = target: T1, Serine/threonine-protein kinase Nek1 (Homo sapiens) (UniProt Q96PY6)
T1 sequence (whole entry): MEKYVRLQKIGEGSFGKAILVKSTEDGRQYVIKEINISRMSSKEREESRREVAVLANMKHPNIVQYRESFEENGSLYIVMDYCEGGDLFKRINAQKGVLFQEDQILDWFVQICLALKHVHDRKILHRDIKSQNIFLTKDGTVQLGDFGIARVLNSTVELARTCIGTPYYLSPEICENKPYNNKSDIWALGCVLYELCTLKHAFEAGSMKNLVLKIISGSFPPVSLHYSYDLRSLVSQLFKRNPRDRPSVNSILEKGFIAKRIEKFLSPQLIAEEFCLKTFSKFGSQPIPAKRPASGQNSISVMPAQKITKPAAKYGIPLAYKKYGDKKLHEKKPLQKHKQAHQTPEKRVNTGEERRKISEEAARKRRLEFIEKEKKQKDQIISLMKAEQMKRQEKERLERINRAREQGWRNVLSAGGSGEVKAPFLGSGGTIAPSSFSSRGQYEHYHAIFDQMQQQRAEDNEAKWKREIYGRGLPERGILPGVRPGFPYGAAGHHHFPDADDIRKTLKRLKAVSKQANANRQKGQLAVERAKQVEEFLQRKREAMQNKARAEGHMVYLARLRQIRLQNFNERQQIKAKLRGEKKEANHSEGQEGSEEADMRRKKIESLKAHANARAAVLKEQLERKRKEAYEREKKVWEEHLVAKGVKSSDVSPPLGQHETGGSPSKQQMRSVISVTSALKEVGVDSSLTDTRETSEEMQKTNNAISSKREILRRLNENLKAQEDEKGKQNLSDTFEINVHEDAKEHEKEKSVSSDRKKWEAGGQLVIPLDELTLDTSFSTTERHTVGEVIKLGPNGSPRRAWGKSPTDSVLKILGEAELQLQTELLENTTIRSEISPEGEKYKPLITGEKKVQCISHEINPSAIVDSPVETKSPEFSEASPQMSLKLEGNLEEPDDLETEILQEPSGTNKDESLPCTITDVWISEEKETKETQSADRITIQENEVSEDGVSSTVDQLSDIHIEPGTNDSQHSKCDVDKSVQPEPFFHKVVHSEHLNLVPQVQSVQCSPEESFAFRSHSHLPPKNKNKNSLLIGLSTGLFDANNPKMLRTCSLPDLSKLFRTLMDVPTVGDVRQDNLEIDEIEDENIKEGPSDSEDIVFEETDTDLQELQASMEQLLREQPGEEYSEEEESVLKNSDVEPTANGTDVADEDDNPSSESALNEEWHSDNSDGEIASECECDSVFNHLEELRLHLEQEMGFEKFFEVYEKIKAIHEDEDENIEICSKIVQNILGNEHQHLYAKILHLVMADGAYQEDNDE

[17] = target: Serine/threonine-protein kinase Nek2 (Homo sapiens) (UniProt P51955)
[18] = target: Serine/threonine-protein kinase pim-1 (Homo sapiens) (UniProt P11309)
[19] = target: RAF proto-oncogene serine/threonine-protein kinase (Homo sapiens) (UniProt P04049)
[20] = target: Uncharacterized serine/threonine-protein kinase SBK3 (Homo sapiens) (UniProt P0C264)
[21] = target: Serine/threonine-protein kinase SIK2 (Homo sapiens) (UniProt Q9H0K1)
[22] = target: SRSF protein kinase 2 (Homo sapiens) (UniProt P78362)
[23] = target: Mitogen-activated protein kinase kinase kinase 7 (Homo sapiens) (UniProt O43318)
[24] = target: Non-receptor tyrosine-protein kinase TYK2 (Homo sapiens) (UniProt P29597)
[25] = target: Serine/threonine-protein kinase WNK2 (Homo sapiens) (UniProt Q9Y3S1)
[26] = target: Serine/threonine-protein kinase WNK4 (Homo sapiens) (UniProt Q96J92)
[27] = target: Serine/threonine-protein kinase 32B (Homo sapiens) (UniProt Q9NY57)
[28] = target: Serine/threonine-protein kinase 25 (Homo sapiens) (UniProt O00506)
Serine/threonine-protein kinase 25 (Homo sapiens), sequence (O00506 whole entry, looked up): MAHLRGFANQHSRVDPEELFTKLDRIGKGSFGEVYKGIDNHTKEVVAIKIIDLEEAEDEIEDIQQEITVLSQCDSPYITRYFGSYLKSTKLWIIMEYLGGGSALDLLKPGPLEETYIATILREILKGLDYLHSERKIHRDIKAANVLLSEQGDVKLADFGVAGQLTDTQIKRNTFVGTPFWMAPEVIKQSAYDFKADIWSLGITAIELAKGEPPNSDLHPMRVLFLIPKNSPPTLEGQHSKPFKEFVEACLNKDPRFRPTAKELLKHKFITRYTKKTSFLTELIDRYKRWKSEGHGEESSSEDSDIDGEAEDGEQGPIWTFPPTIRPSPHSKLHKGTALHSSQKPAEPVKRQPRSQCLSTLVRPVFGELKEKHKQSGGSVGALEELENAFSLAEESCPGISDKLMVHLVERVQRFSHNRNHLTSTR

Mast/stem cell growth factor receptor Kit (Homo sapiens), P10721 [L576P], sequence (P10721 whole entry L576P): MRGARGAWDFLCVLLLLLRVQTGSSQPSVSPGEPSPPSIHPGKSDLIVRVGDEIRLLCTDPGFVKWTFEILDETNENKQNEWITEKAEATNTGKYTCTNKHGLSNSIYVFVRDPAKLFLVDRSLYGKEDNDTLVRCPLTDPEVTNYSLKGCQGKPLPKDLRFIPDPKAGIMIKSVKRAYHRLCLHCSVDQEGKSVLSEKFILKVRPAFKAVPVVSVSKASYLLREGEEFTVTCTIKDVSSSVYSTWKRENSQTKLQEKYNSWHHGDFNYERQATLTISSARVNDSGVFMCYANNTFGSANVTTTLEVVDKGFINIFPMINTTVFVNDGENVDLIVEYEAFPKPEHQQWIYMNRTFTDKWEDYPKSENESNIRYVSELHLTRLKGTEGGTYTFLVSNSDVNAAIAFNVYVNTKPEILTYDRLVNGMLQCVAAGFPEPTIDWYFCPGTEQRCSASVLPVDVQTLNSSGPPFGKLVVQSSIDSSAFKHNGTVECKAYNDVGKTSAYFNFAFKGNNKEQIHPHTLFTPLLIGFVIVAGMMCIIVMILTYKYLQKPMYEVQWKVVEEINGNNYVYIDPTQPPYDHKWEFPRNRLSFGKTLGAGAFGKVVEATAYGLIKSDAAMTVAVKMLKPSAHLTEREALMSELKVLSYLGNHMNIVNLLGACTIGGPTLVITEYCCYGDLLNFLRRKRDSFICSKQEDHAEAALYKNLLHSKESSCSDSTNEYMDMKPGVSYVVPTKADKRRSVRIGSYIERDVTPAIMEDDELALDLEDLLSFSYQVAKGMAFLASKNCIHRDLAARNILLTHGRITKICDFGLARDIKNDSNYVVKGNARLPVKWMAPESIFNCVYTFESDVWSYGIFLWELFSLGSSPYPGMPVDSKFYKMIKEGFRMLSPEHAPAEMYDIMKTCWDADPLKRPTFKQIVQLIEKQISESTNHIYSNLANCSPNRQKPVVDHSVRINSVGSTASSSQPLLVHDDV
Dual specificity protein kinase CLK3 (Homo sapiens), sequence (P49761 whole entry, looked up): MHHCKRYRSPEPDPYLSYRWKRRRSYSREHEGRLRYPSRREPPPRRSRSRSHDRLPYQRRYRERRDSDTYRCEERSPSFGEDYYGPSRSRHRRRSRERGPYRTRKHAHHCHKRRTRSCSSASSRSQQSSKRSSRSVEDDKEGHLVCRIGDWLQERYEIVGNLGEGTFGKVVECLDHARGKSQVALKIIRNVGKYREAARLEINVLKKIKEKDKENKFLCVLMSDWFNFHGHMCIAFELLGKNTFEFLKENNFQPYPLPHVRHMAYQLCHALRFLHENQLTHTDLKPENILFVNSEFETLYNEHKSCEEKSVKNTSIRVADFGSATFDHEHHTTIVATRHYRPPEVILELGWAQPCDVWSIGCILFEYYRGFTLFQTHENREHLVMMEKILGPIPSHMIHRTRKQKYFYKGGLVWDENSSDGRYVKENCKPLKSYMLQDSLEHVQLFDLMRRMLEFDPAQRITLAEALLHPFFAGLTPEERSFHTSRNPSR
Calcium/calmodulin-dependent protein kinase kinase 2 (Homo sapiens), sequence (Q96RR4 2-588 limits assumed): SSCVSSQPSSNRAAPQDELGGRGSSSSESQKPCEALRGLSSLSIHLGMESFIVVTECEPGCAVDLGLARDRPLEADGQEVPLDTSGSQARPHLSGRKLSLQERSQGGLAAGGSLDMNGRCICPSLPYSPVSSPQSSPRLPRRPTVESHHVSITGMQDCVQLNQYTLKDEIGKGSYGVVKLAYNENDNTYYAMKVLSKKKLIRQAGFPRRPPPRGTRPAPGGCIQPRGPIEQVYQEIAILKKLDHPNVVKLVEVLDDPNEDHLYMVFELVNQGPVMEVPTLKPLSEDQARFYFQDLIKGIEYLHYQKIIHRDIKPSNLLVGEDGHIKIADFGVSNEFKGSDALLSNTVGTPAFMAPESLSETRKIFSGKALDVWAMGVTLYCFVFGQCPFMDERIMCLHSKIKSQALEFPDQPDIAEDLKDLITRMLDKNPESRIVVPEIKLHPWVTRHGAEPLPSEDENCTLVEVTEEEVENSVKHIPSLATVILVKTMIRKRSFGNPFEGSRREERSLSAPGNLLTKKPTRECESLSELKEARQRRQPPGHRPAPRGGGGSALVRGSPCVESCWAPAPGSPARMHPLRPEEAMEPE
Mast/stem cell growth factor receptor Kit (Homo sapiens), P10721 [V559D,T670I], sequence (P10721 whole entry V559D/T670I): as the sequence (P10721 whole entry L576P) above, with V559D, P576L, T670I counted along it
Cyclin-dependent kinase 7 (Homo sapiens), sequence (P50613 whole entry): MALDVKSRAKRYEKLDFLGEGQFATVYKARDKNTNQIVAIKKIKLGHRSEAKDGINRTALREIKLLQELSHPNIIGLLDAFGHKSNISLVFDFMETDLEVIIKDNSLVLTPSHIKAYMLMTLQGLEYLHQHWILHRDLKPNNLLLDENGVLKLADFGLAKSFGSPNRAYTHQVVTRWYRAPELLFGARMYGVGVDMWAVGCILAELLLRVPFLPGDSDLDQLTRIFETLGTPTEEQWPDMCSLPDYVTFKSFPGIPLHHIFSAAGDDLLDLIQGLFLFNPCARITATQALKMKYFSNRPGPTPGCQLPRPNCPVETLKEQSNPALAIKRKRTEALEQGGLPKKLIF
Serine/threonine-protein kinase 32B (Homo sapiens), sequence (Q9NY57 whole entry): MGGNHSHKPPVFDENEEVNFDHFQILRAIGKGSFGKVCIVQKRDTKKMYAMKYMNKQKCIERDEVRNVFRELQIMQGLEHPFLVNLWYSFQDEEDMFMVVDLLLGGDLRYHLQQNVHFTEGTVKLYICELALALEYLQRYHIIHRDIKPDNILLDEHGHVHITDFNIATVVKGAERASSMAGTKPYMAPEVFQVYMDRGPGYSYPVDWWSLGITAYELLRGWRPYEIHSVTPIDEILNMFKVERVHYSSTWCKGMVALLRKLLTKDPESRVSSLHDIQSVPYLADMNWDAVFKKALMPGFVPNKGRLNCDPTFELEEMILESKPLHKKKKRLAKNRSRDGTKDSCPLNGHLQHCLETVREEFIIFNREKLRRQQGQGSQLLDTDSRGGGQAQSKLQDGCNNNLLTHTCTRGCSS
Mitogen-activated protein kinase kinase kinase 7 (Homo sapiens), sequence (O43318 whole entry): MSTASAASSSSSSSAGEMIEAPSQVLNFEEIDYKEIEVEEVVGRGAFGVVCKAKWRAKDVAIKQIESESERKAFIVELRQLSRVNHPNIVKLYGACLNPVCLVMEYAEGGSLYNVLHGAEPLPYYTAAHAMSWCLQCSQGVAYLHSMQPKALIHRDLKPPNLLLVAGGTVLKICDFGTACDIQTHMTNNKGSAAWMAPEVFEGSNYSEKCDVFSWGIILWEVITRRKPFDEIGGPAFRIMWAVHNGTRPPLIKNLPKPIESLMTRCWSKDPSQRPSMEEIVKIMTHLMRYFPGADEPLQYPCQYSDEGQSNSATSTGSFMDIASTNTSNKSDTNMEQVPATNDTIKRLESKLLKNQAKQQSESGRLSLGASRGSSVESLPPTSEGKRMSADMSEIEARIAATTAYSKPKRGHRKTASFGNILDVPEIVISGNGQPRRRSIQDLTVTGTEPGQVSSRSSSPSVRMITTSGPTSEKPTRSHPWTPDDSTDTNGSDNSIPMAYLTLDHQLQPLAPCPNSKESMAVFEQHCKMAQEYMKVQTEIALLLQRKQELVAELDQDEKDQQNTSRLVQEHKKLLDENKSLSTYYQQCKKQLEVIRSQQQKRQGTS

Row | SMILES | residual activity [1] | residual activity [2] | residual activity [3] | residual activity [4] | residual activity [5] | residual activity [6] | residual activity [7] | residual activity [8] | residual activity [9] | residual activity [10] | residual activity [11] | residual activity [12] | residual activity [13] | residual activity [14] | residual activity [15] | residual activity [16] | residual activity [17] | residual activity [18] | residual activity [19] | residual activity [20] | other results
1 | CCOC(=O)c1cc2cc(-c3cc(C(=O)NCc4ccc(C(=O)O)cc4)nn3C)ccc2[nH]1 [BI 4394] | 84% | 100% | 100% | 95% | 76% | 62% | 83% | 100% | 97% | 97% | 86% | 100% | 100% | 96% | 84% | 100% | 99% | 95% | 100% | 87% | residual activity [21]: 100%; residual activity [22]: 100%; residual activity [23]: 80%; residual activity [24]: 91%; residual activity [25]: 85%; residual activity [26]: 97%; residual activity [27]: 92%; residual activity [28]: 100%
2 | Cn1nc(C(=O)NCc2ccc(C(=O)O)cc2)cc1-c1ccc2[nH]ccc2c1 [BI 4395] | 100% | 96% | 95% | 80% | 100% | 100% | 95% | 100% | 100% | 43% | 100% | 91% | 59% | 77% | 100% | 100% | 95% | 91% | 70% | 79% | residual activity [21]: 90%; residual activity [22]: 85%; residual activity [23]: 95%; residual activity [24]: 94%; residual activity [25]: 70%; residual activity [26]: 100%; residual activity [27]: 100%; residual activity [28]: 91%
